Assay results published in patent US20130156701A1, “METHOD OF PREPARING ETHACRYNIC AMIDE DERIVATIVES AND APPLICATION THEREOF” (NATIONAL TSING HUA UNIVERSITY, priority 2011, published 2013).

Tests used:
293T cells = test: trypan blue exclusion assay, cell viability after FBuEA treatment; format: cell-based, human; details: 48 hr, read-out: IC50 (concentration required to decrease 50% cell viability)
Description: (§1) Human lung cancer cell line A549, human erythroleukemia cell line (HEL) and human embryonic kidney 293T cell line were cultivated in the RPMI-1640 medium (GIBCO) supplemented with 10% fetal bovine serum, 100 U/mL penicillin, 0.1 mg/mL streptomycin and 2 mM L-glutamine (GIBCO) at 37° C. in 5% CO2 incubator. 293T was a non-tumorigenic cell line as a […] control in cell viability experiment.
(§2) To detect the cytotoxicity effects of FBuEA (compound of formula 10), A549 and HEL were treated with different concentration of FBuEA for 48 hr and compared with 293T. For the cytotoxicity study, trypan blue exclusion assay was performed to quantity the cell viability, 5×10^4 cells and the medium with different concentration of FBuEA (from 0 to 20 µM) were loaded in the 48-well plates for 48 hr. After 48 hr, cells mixed with trypan blue (GIBICO), just count the cells that have excluded the dye. Each count repeated three times and calculated the average of concentration. The cytotoxicity effects of EBuEA to A549, HEL and 293T cells were indicated by IC50 value (comparing with untreated cells, the concentration of EBuEA required to decrease 50% cell viability).

A549 cells = test: as above; format: cell-based, human; details: 48 hr, read-out: IC50 (concentration required to decrease 50% cell viability)
Description: as §1, §2

HEL cells = test: as above; format: cell-based, human; details: 48 hr, read-out: IC50 (concentration required to decrease 50% cell viability)
Description: as §1, §2

[1] = PET imaging of the liver of the TAA-treated CCA rat; format: in vivo; details: CCA rat receiving TAA for 18 weeks
Description: The rats were anesthetized using 1 L/min 2% isoflurane (100% oxygen). After the rats had been anesthetized, they were given ^18F-FBuEA (11 MBq) via the lateral tail vein. After the injection, the rats were fixed in the prone position on a carbon bed.
Dynamic imaging (0-120 min) single-frame scans were acquired with a small-animal PET camera (microPET R4; Concorde Microsystems Inc.). The region of interest (ROI) was disposed in the tumor region by hand, the image reconstructions of ROI were processed with ASIPro software (Concorde Microsystems INC.). Using microPET, the tumor volumes were determined by the intake of ^18F-FBuEA (% ID/g).
Being a promising imaging probe, [^18F]FBuEA should be capable of detecting a disease at its early stage. […] Then the CCA rat along with the normal rat was subsequently imaged with [^18F]FBuEA 5 days later. […] The same CCA rat after feeding for 23 weeks of TAA was imaged again with [^18F]FBuEA but the imaging time was shortened to 5-10 min for optimization test (FIG. 11(D) and (E)). Whereas the tumor lesion was still dark and the cold spot was similar to that of 18 week rat. From the above comparisons, the optimized imaging sampling times appeared to be 0-30 min.

[2] = parent ethacrynic acid, comparison value; cited from earlier work

`C=C(CC)C(=O)c1ccc(OCC(=O)NCCCCF)c(Cl)c1Cl` [FBuEA, N-(4-fluorobutyl)ethacrynic amide] showed an IC50 (293T cells) of 20 µM, an IC50 (A549 cells) of 14 µM and an IC50 (HEL cells) of 5 µM.

With `OC[C@H]1OC(O)[C@H]([18F])[C@@H](O)[C@@H]1O` (some centres unmarked) [[^18F]FDG, [^18F]fluorodeoxyglucose, reference compound] the “PET signal at the tumor lesion” value [1] was “significant hot spot”.

In the case of `C=C(CC)C(=O)c1ccc(OCC(=O)O)c(Cl)c1Cl` [ethacrynic acid], the plasma half-life [2] is listed as 30 to 60 min.
